Data published in patent US20260284065A1, “PHARMACEUTICAL COMPOSITION FOR PREVENTION OR TREATMENT OF CANCER FOR OVERCOMING RESISTANCE TO IMMUNE CHECKPOINT INHIBITORS” (AJOU UNIVERSITY INDUSTRY-ACADEMIC COOPERATION FOUNDATION, priority 2023, published 2026).

Tested on: mouse gastric cancer cell line YTN16
Experiment: YTN16 syngeneic mouse model: subcutaneous tumor size and tumor weight
Type: in vivo
Description: The experiment was conducted by dividing the mice into a control group (Control), a group administered with Comparative Example 1 (Anti-PD-1), a group administered with Comparative Example 2 (CCB-3233), and a group administered with Example 1 (Anti-PD-1+CCB-3233), and eight mouse models were used for each group.
Comparative Example 1 (Anti-PD-1) was diluted in 1×PBS at a concentration of 10 mg/kg and administered intraperitoneally to the mice, Comparative Example 2 (CCB-3233) was orally administered to the mice at a concentration of 50 mg/kg by dissolving 5% DMSO+5% CMC-NA in 1×PBS, and Example 1 (Anti-PD-1+CCB-3233) was diluted and prepared in different solvents as in Comparative Examples 1 and 2, and then administered sequentially.

COc1cc2c(Oc3ccc(Nc4nn(C)cc4C(=O)NC4CCCCC4)cc3F)ccnc2cc1OCCCN1CCOCC1 [Comparative Example 2]
therapeutic effect of the immune checkpoint inhibitor (CCB-3233 administered together with the immune checkpoint inhibitor to YTN 16 syngeneic mice resistant to the immune checkpoint inhibitor): enhanced | tumor weight (FIG. 2) (YTN16 syngeneic mice, anti-PD-1 10 mg/kg intraperitoneally, CCB-3233 50 mg/kg orally, compared between groups): no significant difference in tumor weight from the control group
